According to PMC8565778, “Evaluation of health benefits of sea lamprey (Petromyzon marinus) isolates using in vitro antiinflammatory and antioxidant assays” (PLoS ONE, 2021):
Blank lines part the entries; values can stand above or below the compound they belong to.

Key:
[1] = target: T1, COX-2 (cyclooxygenase enzyme-2) (Homo sapiens, UniProt P35354); assay: biochemical; conditions: read-out: Bioassay results / COX-2 ^a
T1 construct: gene PTGS2
T1 sequence (P35354 18-604): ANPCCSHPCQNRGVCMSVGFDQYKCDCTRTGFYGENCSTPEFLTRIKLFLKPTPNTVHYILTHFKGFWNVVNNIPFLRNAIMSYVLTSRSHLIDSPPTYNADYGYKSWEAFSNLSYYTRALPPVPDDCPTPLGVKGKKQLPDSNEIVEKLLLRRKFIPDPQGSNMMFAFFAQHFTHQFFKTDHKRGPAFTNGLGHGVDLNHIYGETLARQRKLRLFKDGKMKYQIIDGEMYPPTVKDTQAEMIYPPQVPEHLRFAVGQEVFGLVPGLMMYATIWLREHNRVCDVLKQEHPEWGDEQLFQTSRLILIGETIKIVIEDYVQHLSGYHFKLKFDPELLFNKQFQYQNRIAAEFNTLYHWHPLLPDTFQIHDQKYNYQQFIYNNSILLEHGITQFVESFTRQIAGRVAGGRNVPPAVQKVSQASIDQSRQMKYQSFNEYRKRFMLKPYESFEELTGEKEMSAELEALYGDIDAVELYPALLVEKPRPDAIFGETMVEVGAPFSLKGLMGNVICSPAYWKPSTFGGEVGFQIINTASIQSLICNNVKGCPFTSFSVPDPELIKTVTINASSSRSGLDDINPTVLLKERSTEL

[2] = target: T2, COX-1 (cyclooxygenase enzyme-1) (Ovis aries, UniProt P05979); assay: biochemical; conditions: read-out: Bioassay results / COX-1^a
T2 construct: gene PTGS1
T2 sequence (P05979 25-600): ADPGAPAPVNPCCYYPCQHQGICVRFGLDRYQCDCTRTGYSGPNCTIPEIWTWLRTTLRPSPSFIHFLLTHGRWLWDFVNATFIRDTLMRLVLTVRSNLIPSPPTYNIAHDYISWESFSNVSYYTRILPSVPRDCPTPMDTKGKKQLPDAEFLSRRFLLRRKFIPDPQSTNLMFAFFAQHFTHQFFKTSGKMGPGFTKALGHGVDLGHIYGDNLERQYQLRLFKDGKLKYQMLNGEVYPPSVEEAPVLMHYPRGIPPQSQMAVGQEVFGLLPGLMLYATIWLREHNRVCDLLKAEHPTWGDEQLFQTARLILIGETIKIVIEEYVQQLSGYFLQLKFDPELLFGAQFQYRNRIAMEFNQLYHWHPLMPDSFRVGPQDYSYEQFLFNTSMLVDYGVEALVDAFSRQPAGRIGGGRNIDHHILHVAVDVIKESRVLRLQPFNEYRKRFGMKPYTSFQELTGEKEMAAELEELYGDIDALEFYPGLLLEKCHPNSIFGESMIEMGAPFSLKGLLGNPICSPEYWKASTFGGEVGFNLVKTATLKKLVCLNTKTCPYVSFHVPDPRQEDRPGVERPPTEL

[3] = target: T2, COX-1 (cyclooxygenase enzyme-1); assay: in vitro COX-1 enzyme inhibitory assay, single concentration […]; type: biochemical; conditions: read-out: Bioassay results / COX-1^a
[4] = parameters: Fe2+-induced liposome lipid peroxidation; per cent inhibition measured as loss of fluorescent probe signal; conditions: large unilamellar vesicles; LPO (lipid peroxidation of large unilamellar liposomes, Fe2+-initiated); 25 ug/mL; inhibitor
Procedure: Pure compounds and positive controls were assayed for LPO inhibitory activities according to published procedures from our laboratory (see S1 File for experimental details). The antioxidant assay, the lipid peroxidation inhibitory (LPO) assay, used in this study measures free radical scavenging capability of pure compounds and extracts. In this assay, peroxidation of the lipid was initiated by the addition of Fe^2+ resulting in the generation of radicals, which cause the peroxidation of LUV and in turn the fluorescent probes embedded in it. The loss of fluorescent intensity in the assay indicates the oxidative damage to the lipid component of the LUV [11–15, 21] (S1 File). At 25 μg/mL concentration, cholesteryl palmitate, cholesteryl oleate, cholesteryl eicosapentaenoate and cholesteryl arachidonate inhibited LPO by 38, 60, 72 and 82%, respectively (Table 2) (Fig S in S1 File). The most abundant steroidal compound in sea lamprey was cholesterol and it lacked LPO inhibitory activity. Antioxidant activity profiles of the cholesterol esters were like its antiinflammatory profiles. That is, an increase in chain length and unsaturation increased the LPO activity. Majority of the lipophilic fraction of the sea lamprey extract consisted of glycerides and free fatty acids.

[5] = target: T2, COX-1 (cyclooxygenase enzyme-1); assay: biochemical; parameters: In vitro cyclooxygenase (COX-1 and COX-2) enzyme inhibition assay, percent inhibition; conditions: read-out: % inhibition
Procedure: (see S1 File for experimental details). To evaluate the health-beneficial activity of the sea lamprey compounds, we included all isolates of sea lamprey extract for the evaluation of in vitro antiinflammatory and antioxidant activities. […] (S1 File). […] Antiinflammatory activities of arginine, tyrosine, tryptophan, asparagine and inosine were assayed at 50 μg/mL concentration.

[6] = target: T1, COX-2 (cyclooxygenase enzyme-2); assay: biochemical; parameters: In vitro cyclooxygenase (COX-1 and COX-2) enzyme inhibition assay, percent inhibition; conditions: read-out: % inhibition

SMILES: COc1ccc2cc([C@H](C)C(=O)O)ccc2c1 [compound 3, Naproxen]
inhibition at 12 µg/mL [1]: 60.5%
inhibition at 12 µg/mL [2]: 61.4%

SMILES: CC(C)Cc1ccc(C(C)C(=O)O)cc1 (stereo not shown) [compound 4, Ibuprofen]
inhibition at 15 µg/mL [3]: 56.4%

SMILES: CCCCCCCCCCCCCCCC(=O)O[C@H]1CC[C@@]2(C)C(=CC[C@H]3[C@@H]4CC[C@H]([C@H](C)CCCC(C)C)[C@@]4(C)CC[C@@H]32)C1 [compound 8, Cholesteryl palmitate^#]
% inhibition [4]: 38.0 ± 1.4%

SMILES: CCCCCCCC/C=C\CCCCCCCC(=O)O[C@H]1CC[C@@]2(C)C(=CC[C@H]3[C@@H]4CC[C@H]([C@H](C)CCCC(C)C)[C@@]4(C)CC[C@@H]32)C1 [compound 9, Cholesteryl oleate^#]
% inhibition [4]: 59.5 ± 0.7%

SMILES: CC/C=C\C/C=C\C/C=C\C/C=C\C/C=C\CCCC(=O)O[C@H]1CC[C@@]2(C)C(=CC[C@H]3[C@@H]4CC[C@H]([C@H](C)CCCC(C)C)[C@@]4(C)CC[C@@H]32)C1 [compound 10, Cholesteryl eicosapentaenoate]
inhibition at 25 µg/mL [5]: 63.9 ± 2.1%
% inhibition [4]: 72.0 ± 1.4%
inhibition at 25 µg/mL [6]: 58.5 ± 1.7%

SMILES: CCCCC/C=C\C/C=C\C/C=C\C/C=C\CCCC(=O)O[C@H]1CC[C@@]2(C)C(=CC[C@H]3[C@@H]4CC[C@H]([C@H](C)CCCC(C)C)[C@@]4(C)CC[C@@H]32)C1 [compound 11, Cholesteryl arachidonate]
inhibition at 25 µg/mL [5]: 74.7 ± 0.4%
% inhibition [4]: 82.0 ± 1.4%
inhibition at 25 µg/mL [6]: 67.9 ± 2.2%

SMILES: N=C(N)NCCC[C@H](N)C(=O)O [compound 17, Arginine]
% inhibition [4]: 22.0 ± 1.4%

SMILES: CC(C)[C@H](N)C(=O)O [compound 18, Valine]
% inhibition [4]: 18.5 ± 0.7%

SMILES: CC(C)C[C@H](N)C(=O)O [compound 19, Leucine]
% inhibition [4]: 19.5 ± 0.7%

SMILES: N[C@@H](Cc1ccc(O)cc1)C(=O)O [compound 20, Tyrosine]
% inhibition [4]: 55.0 ± 1.4%

SMILES: CC[C@H](C)[C@H](N)C(=O)O [compound 21, Isoleucine]
% inhibition [4]: 17.5 ± 0.7%

SMILES: N[C@@H](Cc1ccccc1)C(=O)O [compound 22, Phenylalanine]
% inhibition [4]: 44.0 ± 1.4%

SMILES: N[C@@H](CCC(=O)O)C(=O)O [compound 23, Glutamic acid]
% inhibition [4]: 46.0 ± 1.4%

SMILES: N[C@@H](Cc1c[nH]c2ccccc12)C(=O)O [compound 25, Tryptophan]
% inhibition [4]: 57.5 ± 0.7%

SMILES: C[C@@H](O)[C@H](N)C(=O)O [compound 26, Threonine]
% inhibition [4]: 45.0 ± 1.4%

SMILES: NC(=O)C[C@H](N)C(=O)O [compound 27, Asparagine]
% inhibition [4]: 28.0 ± 1.4%

SMILES: NCC(=O)O [compound 29, Glycine]
% inhibition [4]: 16.5 ± 0.7%

SMILES: N[C@@H](CS)C(=O)O [compound 30, Cysteine]
% inhibition [4]: 47.0 ± 1.4%

SMILES: O=C(O)[C@@H]1CCCN1 [compound 31, Proline]
% inhibition [4]: 17.0 ± 1.4%

SMILES: N[C@@H](CO)C(=O)O [compound 32, Serine]
% inhibition [4]: 29.0 ± 1.4%

SMILES: N[C@@H](CC(=O)O)C(=O)O [compound 33, Aspartic acid]
% inhibition [4]: 36.5 ± 0.7%

SMILES: CN(CC(=O)O)C(=N)N [compound 34, Creatine]
% inhibition [4]: 16.5 ± 0.7%

SMILES: O=c1[nH]cnc2c1ncn2[C@@H]1O[C@H](CO)[C@@H](O)[C@H]1O [compound 35, Inosine]
% inhibition [4]: 16.5 ± 2.1%

SMILES: Nc1[nH]cnc2ncnc1-2 [compound 36, Adenine]
% inhibition [4]: 19.5 ± 0.7%

SMILES: O=c1[nH]c(=O)c2nc[nH]c2[nH]1 [compound 37, Xanthine]
% inhibition [4]: 22.0 ± 1.4%

SMILES: O=c1[nH]cnc2nc[nH]c12 [compound 38, Hypoxanthine]
% inhibition [4]: 24.5 ± 0.7%

SMILES: NCCCCN [compound 41, Putrescine]
% inhibition [4]: 17.0 ± 1.4%

SMILES: NCCCNCCCCNCCCN [compound 42, Spermine]
% inhibition [4]: 16.5 ± 0.7%

SMILES: CCCC(=O)C(=O)O [compound 43, α-Ketovaleric acid]
% inhibition [4]: 15.0 ± 1.4%

SMILES: CC(C)C(=O)C(=O)O [compound 44, α-Ketoisovaleric acid]
% inhibition [4]: 15.5 ± 0.7%

SMILES: CCC(=O)C(=O)O [compound 45, α-Ketobutyric acid]
% inhibition [4]: 16.5 ± 0.7%

SMILES: CC(O)CC(=O)O (stereo not drawn) [compound 46, β-Hydroxybutyric acid]
% inhibition [4]: 21.5 ± 0.7%

SMILES: CC(=O)C(=O)O [compound 47, Pyruvic acid]
% inhibition [4]: 23.5 ± 0.7%

SMILES: O=C(O)C(O)Cc1ccccc1 (stereo not shown) [compound 48, 3-Phenyllactic acid]
% inhibition [4]: 25.0 ± 1.4%

inhibition at 25 µg/mL [5]: 4.13 ± 0.6%
inhibition at 25 µg/mL [6]: 4.37 ± 0.5%
SMILES: CCCC(=O)C(=O)O [α-Ketovaleric acid]

inhibition at 25 µg/mL [5]: 19.7 ± 1.5%
inhibition at 25 µg/mL [6]: 12.3 ± 1.6%
SMILES: CC(O)CC(=O)O (stereo not drawn) [β-Hydroxybutyric acid]
